Measurements: a melting point compilation (Tetko et al.; mined from patent text by program, amines drawn as free bases though some values may be those of a salt)

| melting point | Structure (SMILES) |
| --- | --- |
| 134 to 135 °C | CCOCCc1c(-c2ccccc2)nc(Cl)n2ncnc12 |
| 90 °C | CCc1cccc(NC(=O)C=C(C)C)c1 |
| 275 to 278 °C | COc1ccc2c(c1O)NC(=O)C1CCCN1C2=O (centres undefined) |
| 72 to 90 °C | CC(=O)OC1CSC(Oc2cc(-c3cncnc3)cnc2Cl)C(OC(C)=O)C1OC(C)=O (centres undefined) |
| 183 to 184 °C | CCc1cn(C2CC(O)C(CNC(=O)C(C)S(=O)(=O)c3ccc(Cl)cc3Cl)O2)c(=O)[nH]c1=O (mixture of isomers) |
| 182 °C | CN(C)CCCCNC(=O)c1cnc2c(c1)N(Cc1cc(Cl)ccc1C(F)(F)F)CCN2 |
| 146 to 148 °C | CC(C)(C)c1cc(SCCC(=O)NCC(=O)c2ccccc2)cc(C(C)(C)C)c1O |
| 245 to 246 °C | Cc1ccc(Sc2c(O)c3ccc(Cl)cc3[nH]c2=O)cc1 |
| 98 to 100 °C | O=C(O)C=C1CCCCC1Cc1ccccc1 (racemic) |
| 156 °C | O=C1CCC(c2ccccc2)(c2ccccc2)C2CN(C(Cc3ccccc3)=NCc3cccc(F)c3)CC12 (centres undefined) |
| 186 to 187 °C | Nc1ncc2c(n1)-c1ccc(-c3ccccc3)cc1C(c1ccc(Cl)c(Cl)c1)C2 (centres undefined) |
| 203 to 204 °C | CCOC(=O)Cc1sc(SCc2cc(O)nc(O)n2)nc1C |
| 105 to 106 °C | CC(C)(C)OC(=O)c1ccc(CN(CCc2ccccc2)C(=O)OC(C)(C)C)c(N)c1 |
| 206 to 208 °C | CC(c1oc2ccccc2c(=O)c1-c1cccc(F)c1)n1nc(-c2ccc3cn[nH]c3c2)c2c(N)ncnc21 (centres undefined) |
| 278 to 279 °C | Oc1ccc(-c2ncc3ncc(-c4ccccc4O)cc3n2)cc1 |
| 167 to 169 °C | CCOc1nn(CCOc2ccccc2CC(=O)O)cc1C(=O)NCc1ccc(Cl)cc1Cl |
| 56 to 61 °C | CCCCOC(=O)C(=O)c1ccc2c(c1)C1(C)CCN(C)C1N2C (centres undefined) |
| 124 to 125 °C | CC(C)c1cccc(C(C)C)c1NC(=O)N(Cc1ccc(N(C)C)cc1)c1ccc(F)cc1 |
| 92 to 94 °C | COC(=O)c1cccc(Oc2nn(Cc3ccccc3)c3ccccc23)n1 |
| 55 to 56 °C | CC1CCc2cc([N+](=O)[O-])cnc2C1 (centres undefined) |
| 210 to 212 °C | COc1ccc(C=CC(=O)c2cc(Oc3ccccc3)c(NS(C)(=O)=O)cc2O)cc1OC |
| 162 to 164 °C | C=CCc1c(O)ccc2ncccc12 |
| 144 to 146 °C | CC(C)(C)OC(=O)N1CCN(c2ccc(N3CC(CO)OC3=O)cc2F)CC1 (centres undefined) |
| 60 to 63 °C | O=C(CN1CCCC1)Nc1ccc(Br)cc1 |
| 153 to 155 °C | CCOC(=O)c1[nH]c(=O)c(CC(C)C)[n+]([O-])c1OC |
| 162 to 163 °C | FC(F)(F)c1ccc(-c2ccnc(Nc3ccccc3)n2)cc1 |
| 151 to 154 °C | CN1NC(=O)C2C(C1=O)C2(C)C (centres undefined) |
| 103 to 106 °C | Cc1cc(C)cc(C(=O)c2c(-c3ccc(OCCCN(C)C)cc3)oc3ccccc23)c1 |
| 138 to 161 °C | COC1C=C(C)C(=O)CC(C)(C)C1OC(=O)c1ccc(N)cc1 (centres undefined) |
| 146 to 147 °C | Cc1c(Cc2cc(F)cc(Cl)c2)sc2c(-c3cccc(C(=O)NCCO)c3)cccc12 |

The next lines start with the compound.

| Structure (SMILES) | melting point |
| --- | --- |
| CC(=O)c1cc2c(C(C)=O)c(OCC(O)CNC(C)(C)C)ccc2o1 (centres undefined) | 122 °C |
| CCCCCS(=O)(=O)NC(=O)/C=C/c1ccc(OCCOC(C)=O)cc1Oc1ncc(C(F)(F)F)cc1Cl | 141 to 144 °C |
| CCOc1ccc(-c2[nH]nc3c2C(=O)c2c(NC(C)=O)cccc2-3)cc1 | 288 °C |
| C=Cc1nc(C#N)c(C#N)n1CC | 66 to 70 °C |
| Clc1cc(Cl)c(C#C[Si](c2ccccc2)(c2ccccc2)c2ccccc2)c(Cl)c1 | 115 to 120 °C |
| COc1ccc(C(=O)c2c(F)cccc2F)cc1 | 122 to 124 °C |
| CC(C)(C)OC(=O)N1CCN(C(=O)C2C3CCC(O3)C2C(=O)O)CC1 (centres undefined) | 206 to 208 °C |
| CCCN(CCC)Cc1cnc(-c2ncn3c2CN(C)C(=O)c2ccccc2-3)o1 | 133 to 135 °C |
| CSc1c(C(Cc2ccc(Cl)cc2)C(=O)O)ccc2c3ccccc3n(Cc3ccc(Cl)cc3)c12 (centres undefined) | 104 to 107 °C |
| O=[N+]([O-])N=C1NCCCN1CC1CCOC1 (centres undefined) | 87.5 to 90.8 °C |
| COc1cccc2c1cc(SCCC(=O)O)n2C | 126 to 128 °C |
| O=C(c1cccs1)c1cnn2c(-c3cccc(NC(=O)C4CCCCC4)c3)ccnc12 | 239 to 240 °C |
| CCn1ncc2nc(C(N)=O)c(-c3ccccc3)nc21 | 189 to 190 °C |
| CN(C(=O)c1n[nH]c2c(=O)[nH]c3cc(Cl)ccc3c(=O)c12)c1ccccc1 | 308 °C |
| CCOC(CNC(=S)Nc1c(F)ccc2nc(C)ccc12)OCC | 189 to 191 °C |
| CCCN(C)CCOc1ccc(-n2ccc(OCc3ccc(Cl)cn3)cc2=O)cc1 | 119 to 123 °C |
| Brc1cnn(Cc2ccccc2)c1 | 51 to 52 °C |
| O=C(C=Cc1cccc(F)c1)C=Cc1cccc(F)c1 | 96 to 97 °C |
| NS(=O)(=O)c1ccc(NN=C2C(=O)Nc3ccc(C(=O)NCCO)cc32)cc1 | > 230 °C |
| COc1ccc(OC)c(CN[C@H]2[C@H]3CCN(C[C@@H]3C(N)=O)[C@H]2C(c2ccccc2)c2ccccc2)c1 (relative stereo) | 127 to 129 °C |
| Cc1nc(C#Cc2cncc(CO)c2)cs1 | 98 to 99 °C |
| CC(C)C(=O)NC1CCc2c(c3cc(Br)ccc3n2Cc2cccc(F)c2)C1 (centres undefined) | 177 to 179 °C |
| CC(C)Cn1c(=O)n(C)c(=O)c2c(SCCCO)c(Cc3cccc(F)c3)sc21 | 99 to 100 °C |

| Structure (SMILES) | melting point |
| --- | --- |
| N#CC(N)=C(C#N)NCc1cnn(-c2c(Cl)cc(C(F)(F)F)cc2Cl)n1 | 191 to 192 °C |
| COc1ccc(O[C@@H]2COc3ccc(OCc4ccccn4)cc3[C@@H]2O)cc1 (relative stereo) | 117 to 118 °C |
| Cc1nnc2n1-c1ccc([N+](=O)[O-])cc1C(c1ccccc1Cl)=NC2 | 231 to 233 °C |
| CCCCOC(=O)[C@H]1CN(c2ccc3c(c2)oc(=O)n3CC)C(=O)O1 | 155 to 157 °C |
| CCn1c(=O)c2[nH]c(/C=C/c3cccc([N+](=O)[O-])c3)nc2n(CC)c1=O | > 270 °C |
| Cc1ncsc1C(O)c1cccc(N(C)C)c1 (centres undefined) | 135 to 138 °C |
| O=Cc1cc(F)cc(Br)c1F | 36 to 38 °C |
| Fc1cc(F)c(C(Cl)(Cl)Cl)cc1C(Cl)(Cl)Cl | 77 to 79 °C |
| CN(C#N)C1CN(C(=O)Nc2ccc(C(F)(F)F)cc2)N=C1c1ccc(Cl)cc1 (centres undefined) | 216 to 217 °C |
| Cc1nn(C)c(-c2ccc(F)cc2)c1C=O | 130 to 131 °C |
| CC(C)CN1CCCCC1C(=O)Nc1cc(C(F)(F)F)ccc1-c1cc(Oc2cccc3[nH]c(=O)c(N)nc23)ncn1 (centres undefined) | > 250 °C |
| COc1ccc(C2CCN(CCC3CCCCc4ccccc43)CC2)cc1OC (centres undefined) | 127 to 128 °C |
| CCCc1cccc(=O)[nH]1 | 89 to 90 °C |
| Cc1ccc(C(=O)NC(NC(=S)Nc2ccc(Cl)nc2)C(F)(F)F)cc1 (centres undefined) | 199 to 200 °C |
| CC(=O)OC1(C(C)=O)CCC2C3CCC4=CC(=O)CCC4(C)C3CCC21C (centres undefined) | 243 to 245 °C |
| COC(=O)c1ccc(N2CCCC2)c(NC(=O)C(CSC(C)=O)Cc2ccccc2)c1 (centres undefined) | 72 to 75 °C |
| CC(C)Oc1cc(CCCOc2nn(C)cc2CC(=O)O)n(Cc2ccc(Cl)cc2Cl)n1 | 96 to 97 °C |
| CCOC(=O)Cn1c(=O)c(=O)[nH]c2cc(C(F)(F)F)c(-n3ccc(C=NOCc4ccccc4)c3)cc21 | 142 to 147 °C |
| CN1CCc2c(ccc3[nH]c(=O)c(=O)[nH]c23)C1 | 310 to 335 °C |
| Fc1cc(CC2(Cc3ccnc(F)c3)c3ccccc3Oc3ncccc32)ccn1 | 185 to 189 °C |
| CCOCc1nc2c(N)nc3cccnc3c2n1CC(C)(C)OCCS(C)(=O)=O | 189 to 191 °C |
| CCOC(=O)/C=C/c1ccc(OCC2CCCO2)cc1Oc1ncc(C(F)(F)F)cc1Cl (centres undefined) | 84 to 86 °C |
| COc1ccc(C(=O)CCCCCBr)cc1Cl | 104 to 106 °C |

| Structure (SMILES) | melting point |
| --- | --- |
| C#CCOCc1c(C)nc2c(OCc3ccccc3C)cccn12 | 87 to 89 °C |
| Cc1ccc2ccc(C#N)cc2c1 | 134 to 136 °C |
| CC(C)(C)OC(=O)CN1CCC(CNC(=O)N2CCN(C3CCN(C(=O)OC(C)(C)C)CC3)CC2)CC1 | 131 to 133 °C |
| CN(N)C(=O)N=C1CCC(CC2CCC(=NC(=O)N(C)N)CC2)CC1 (centres undefined) | 187 to 193 °C |
| O=C(NC(=O)c1ccc(F)c(OC(F)F)c1F)NC1CC1 | 128 to 130 °C |
| COC(=O)c1[nH]c2ccccc2c1Oc1ccccc1N | 183 to 184 °C |
| CCOC(=O)C(C)(C)Oc1ccc(-c2ccc(CC(=O)Nc3cc(Cl)ccc3OC)cc2)cc1 | < 20 °C |
| CC(C(=O)O)=C1CCC2C3CCC4=CC(=O)CCC4(C)C3CCC12C (centres undefined) | 266 to 270 °C |
| O=S(=O)(F)CCCCCCCc1ccc(O)cc1 | 47 to 51 °C |
| O=C(OCCn1ccnc1)C(O)c1ccccc1 (centres undefined) | 131 to 132 °C |
| CC(CN1CCCC1)N1c2ccccc2Sc2ccc(C(=O)NCCC(C)(C)C)cc21 (racemic) | 138 °C |
| NCCCNC(=O)c1cccc(Nc2nccc(-c3ccnc(NCCCO)c3)n2)c1 | 169 to 170 °C |
| N#Cc1ccccc1OCCCCCCCC(=O)O | 83 to 85 °C |
| CC(C)(C)C1=CC(O)(C(F)(F)F)C(=O)C(C(C)(C)C)=C1 (centres undefined) | 58 to 61 °C |
| OCCNC(=S)NC(=Nc1cccc2ccccc12)c1ccccc1 | 131 to 132 °C |
| OC1c2ccccc2COc2ccc(-c3nnn[nH]3)cc21 (centres undefined) | 335 °C |
| NC(=O)[C@H]1CN2C(=O)N(c3cc(Cl)cc(Cl)c3)C(=O)[C@]2(Cc2ccc(OC(F)(F)F)cc2)C1 | 123 °C |
| O=C(c1ccc(F)cc1)N1CCCC(c2nc(-c3cccc(F)c3)no2)C1 (centres undefined) | 86 to 89 °C |
| FC(F)(F)c1ccc(-c2nc(Cl)cc(-c3ccccc3)n2)cc1 | 82 to 84 °C |
| COc1cc(C(=O)c2cccs2)cc(OC)c1OC | 83 °C |
| CCCCn1nc(C(OC)OC)nc1Cc1ccc(-c2ccccc2-c2nnn[nH]2)nc1 | 113 to 115 °C |
| OCc1ccc(-c2ccc(-c3cn([C@H]4CN5CCC4CC5)nn3)cc2)cc1 | 250 °C |
| COc1ccc(-c2cc(=S)n(C)c(=O)n2C)cc1OC | 146 to 148 °C |
